Earlier results as cited in patent US20110236881A1, “MODULATION OF INFLUENZA VIRUS” (priority 2008, published 2011).

Biological target: full-length M2 (Influenza A virus, UniProt P0DOF5)
Details: the protein binds a single drug molecule per tetramer

Sequence of full-length M2 (P0DOF5 whole entry): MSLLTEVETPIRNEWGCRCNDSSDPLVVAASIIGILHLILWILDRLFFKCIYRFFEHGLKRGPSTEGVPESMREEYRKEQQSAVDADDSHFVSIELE

NC12CC3CC(CC(C3)C1)C2 [amantadine]
cooperativity factor of inhibition of full-length M2: 1.0
